Columns and labels:
Assay in all cases: relative viability (nuclei count vs DMSO), 5 days (fraction); higher = more cells survive
[1] = compound: CN(C)C(=N)NC(=N)N [Metformin] + Cc1cc(Nc2cc(N3CCN(C)CC3)nc(Sc3ccc(NC(=O)C4CC4)cc3)n2)n[nH]1 [Tozasertib] (partner 0.1 µM)
Method in brief: (§1)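 Five library-drug doses in √10 steps were combined with a fixed anchor-drug dose, or a single drug was given alone, by pin tool to lung cancer cell lines in 1536-well plates the day after seeding. Nuclei were stained and counted after 5 days. Relative viability is the nuclei count in treated wells over that in vehicle wells, taken as the median of duplicate plates.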

[2] = compound: N#CC1(c2ccc(NC(=O)c3cccnc3NCc3ccncc3)cc2)CCCC1 [Apatinib] + CC(=O)c1c(C)c2cnc(Nc3ccc(N4CCNCC4)cn3)nc2n(C2CCCC2)c1=O [Palbociclib] (partner 0.5 µM)
Method in brief: as §1

[3] = compound: N#CC1(c2ccc(NC(=O)c3cccnc3NCc3ccncc3)cc2)CCCC1 [Apatinib] + CC1(C)CCC(c2ccc(Cl)cc2)=C(CN2CCN(c3ccc(C(=O)NS(=O)(=O)c4ccc(N[C@H](CCN5CCOCC5)CSc5ccccc5)c(S(=O)(=O)C(F)(F)F)c4)cc3)CC2)C1 [Navitoclax] (partner 0.5 µM)
Method in brief: as §1

[4] = compound: N#CC1(c2ccc(NC(=O)c3cccnc3NCc3ccncc3)cc2)CCCC1 [Apatinib] + C[C@]1(O)C[C@@H](c2nc(-c3ccc4ccc(-c5ccccc5)nc4c3)c3c(N)nccn32)C1 [Linsitinib] (partner 1 µM)
Method in brief: as §1

Cell Line | relative viability ([1]; first compound 10 µM) | relative viability ([1]; first compound 31.62 µM) | relative viability ([1]; first compound 100 µM) | relative viability ([1]; first compound 316.23 µM) | relative viability ([1]; first compound 1000 µM) | relative viability ([2]; first compound 0.08 µM) | relative viability ([2]; first compound 0.253 µM) | relative viability ([2]; first compound 0.8 µM) | relative viability ([2]; first compound 2.53 µM) | relative viability ([2]; first compound 8 µM) | relative viability ([3]; first compound 0.08 µM) | relative viability ([3]; first compound 0.253 µM) | relative viability ([3]; first compound 0.8 µM) | relative viability ([3]; first compound 2.53 µM) | relative viability ([3]; first compound 8 µM) | relative viability ([4]; first compound 0.08 µM) | relative viability ([4]; first compound 0.253 µM) | relative viability ([4]; first compound 0.8 µM) | relative viability ([4]; first compound 2.53 µM) | relative viability ([4]; first compound 8 µM)
NCI-H2126 | 0.764 | 0.834 | 0.824 | 0.525 | 0.53 | 0.324 | 0.352 | 0.355 | 0.322 | 0.34 | 0.9 | 0.859 | 0.826 | 0.811 | 0.802 | 0.733 | 0.69 | 0.675 | 0.631 | 0.652
CAL-12T | 0.437 | 0.388 | 0.408 | 0.363 | 0.35 | 0.448 | 0.56 | 0.465 | 0.485 | 0.367 | 1.26 | 1.23 | 1.1 | 1.17 | 1.03 | 0.875 | 0.879 | 0.819 | 0.762 | 0.654
NCI-H358 | 0.0917 | 0.104 | 0.101 | 0.0897 | 0.0865 | 0.137 | 0.133 | 0.123 | 0.124 | 0.123 |  |  |  |  |  | 0.868 | 0.777 | 0.731 | 0.627 | 0.703
HCC-44 | 0.971 | 0.931 | 1.06 | 0.761 | 0.757 | 0.999 | 0.987 | 0.894 | 0.839 | 0.8 | 0.961 | 1.05 | 0.979 | 0.946 | 0.892 | 0.673 | 0.759 | 0.66 | 0.711 | 0.592
EKVX | 0.337 | 0.519 | 0.443 |  | 0.391 | 0.378 | 0.482 | 0.33 | 0.375 | 0.378 | 0.882 | 0.946 | 0.98 | 0.888 | 0.826 | 1.04 | 1.09 | 0.985 | 0.862 | 0.795
NCI-H1734 | 0.246 | 0.242 | 0.267 | 0.268 | 0.29 | 0.375 | 0.364 | 0.334 | 0.318 | 0.312 | 0.852 | 0.81 | 0.861 | 0.708 | 0.685 | 0.969 | 1.04 | 0.897 | 0.738 | 0.809
NCI-H1395 | 0.727 | 0.752 | 0.867 | 0.83 | 0.738 | 0.632 | 0.687 | 0.644 | 0.585 | 0.602 | 1.1 | 1.13 | 1.09 | 1.02 | 0.957 | 1.19 | 1.08 | 1.16 | 1.07 | 0.847
SW 900 | 0.476 | 0.482 | 0.658 | 0.461 | 0.657 | 0.616 | 0.548 | 0.558 | 0.478 | 0.435 |  |  |  |  |  |  |  |  |  | 
NCI-H1975 | 0.888 | 0.905 | 0.872 | 0.78 | 1.08 | 0.654 | 0.634 | 0.597 | 0.522 | 0.526 | 1.19 | 1.15 | 1.04 | 0.869 | 0.852 | 0.988 | 0.954 | 0.931 | 0.854 | 0.888
Calu-6 |  |  |  |  |  |  |  |  |  |  | 0.791 | 0.919 | 0.751 | 0.648 | 0.626 | 0.948 | 1 | 0.912 | 0.928 | 0.85
EBC-1 |  |  |  |  |  |  |  |  |  |  | 0.5 | 0.55 | 0.46 | 0.27 | 0.237 | 0.935 | 0.981 | 0.955 | 0.685 | 0.567
NCI-H1792 |  |  |  |  |  | 0.662 | 0.651 | 0.577 | 0.633 | 0.622 | 0.572 | 0.596 | 0.569 | 0.559 | 0.592 | 0.719 | 0.51 | 0.502 | 0.491 | 0.641
NCI-H596 | 0.955 | 0.93 | 1.1 | 0.985 | 0.938 |  |  |  |  |  | 1.03 | 1.11 | 0.927 | 0.945 | 0.857 | 1.23 | 1.05 | 1.02 | 0.994 | 0.795
NCI-H1650 | 0.433 | 0.443 | 0.496 | 0.442 | 0.364 | 0.262 | 0.352 | 0.323 | 0.299 | 0.303 | 1.39 | 1.41 | 1.18 | 1.1 | 1.06 |  |  |  |  | 
NCI-H1944 | 0.314 | 0.279 | 0.288 | 0.245 | 0.297 | 0.362 | 0.327 | 0.272 | 0.325 | 0.255 | 1.04 | 1.06 | 0.976 | 0.974 | 0.965 | 1.19 | 1.22 | 1.06 | 1.25 | 1.26
HCC-827 |  | 0.422 | 0.442 | 0.387 | 0.439 | 0.444 | 0.444 | 0.402 | 0.391 | 0.357 | 1.07 | 1.06 | 0.956 | 0.998 | 0.781 | 0.995 | 0.937 | 1.01 | 0.956 | 0.737
NCI-H441 |  | 0.448 | 0.511 | 0.438 | 0.587 | 0.234 | 0.217 | 0.219 | 0.211 | 0.212 | 1.07 | 0.5 | 0.728 | 0.519 | 0.31 | 0.596 | 0.61 | 0.628 | 0.422 | 0.303
LCLC-103H | 0.557 | 0.627 | 0.568 | 0.556 | 0.592 | 0.513 | 0.436 | 0.426 | 0.465 | 0.483 |  |  |  |  |  | 1.1 | 1.05 | 1.06 | 1.09 | 0.993
HARA |  | 0.0842 | 0.14 | 0.101 | 0.105 | 0.291 | 0.262 | 0.303 | 0.271 | 0.272 | 1.15 | 1.18 | 1.1 | 1.13 | 1.07 | 1.04 | 0.983 | 0.994 | 0.995 | 0.882
